According to patent US20260028326A1, “COMPOUND BASED ON ISOINDOLINE-SUBSTITUTED GLUTARIMIDE BACKBONE AND USE THEREOF” (GLUETACS THERAPEUTICS (SHANGHAI) CO., LTD., priority 2022, published 2026):

What follows are molecules tested against human Cereblon WT GST-tagged protein (Homo sapiens (Human), UniProt Q96SW2) (assay: CRBN-binding affinity, HTRF (CEREBLON BINDING kit)).
Protocol: The CEREBLON BINDING kits (specification: 10,000 tests; product number: Catalog #64BDCRBNPEH; CISBIO company) was used to determine the CRBN binding ability of the compounds to be tested through a HTRF method (homogeneous time-resolved fluorescence). The specific methods are as follows: • 1. […] Then, 2.5 μL of human Cereblon WT GST-tagged protein solution was added to each well. Finally, 5 μL of the thoroughly mixed Thalidomide-Re reagent and GST Eu antibody working solution were added to each of the aforementioned wells. […] The blank control wells were sequentially added with 2.5 μL of diluent #9 (1×) solution, 2.5 μL of PROTAC binding buffer, and 5 μL of thoroughly mixed Thalidomide-Re reagent and GST Eu antibody working solution. • 4.
The corresponding CRBN binding inhibition rate was calculated using the following method: […]

Sequence of human Cereblon WT GST-tagged protein (Q96SW2 whole entry): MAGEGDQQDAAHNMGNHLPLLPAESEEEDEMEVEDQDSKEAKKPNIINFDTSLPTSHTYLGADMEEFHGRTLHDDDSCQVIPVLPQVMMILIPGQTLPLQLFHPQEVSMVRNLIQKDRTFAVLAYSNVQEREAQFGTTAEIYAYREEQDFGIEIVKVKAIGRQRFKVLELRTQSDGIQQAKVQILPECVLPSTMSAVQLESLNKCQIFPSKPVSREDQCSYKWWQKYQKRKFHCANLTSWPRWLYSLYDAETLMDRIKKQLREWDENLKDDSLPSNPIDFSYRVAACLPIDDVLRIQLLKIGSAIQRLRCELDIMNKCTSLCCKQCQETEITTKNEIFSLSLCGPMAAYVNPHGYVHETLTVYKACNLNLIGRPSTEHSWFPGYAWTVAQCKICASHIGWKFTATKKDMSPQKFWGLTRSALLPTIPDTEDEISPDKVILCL

**Q.** With O=C1CCC(N2Cc3cc(CC4CCN(Cc5ccccc5-c5ccc(Cl)cc5)CC4)ccc3C2=O)C(=O)N1 (stereo not shown) [GT-03361, 3-(5-((1-((4′-chloro-[1,1′-biphenyl]-2-yl)methyl)piperidin-4-yl)methyl)-1-oxoisoindolin-2-yl)piperidine-2,6-dione] as the molecule, how does the IC50 read?
**A.** Its IC50 is 1590 nM.

**Q.** With O=C1CCC(N2Cc3cc(C(=O)N4CCN(C(=O)C5=C(c6ccc(F)cc6)CCCC5)CC4)ccc3C2=O)C(=O)N1 (stereo not shown) [GT-05448, 3-(5-(4-(4′-fluoro-3,4,5,6-tetrahydro-[1,1′-biphenyl]-2-carbonyl)piperazine-1-carbonyl)-1-oxoisoindolin-2-yl)piperidine-2,6-dione] as the molecule, how does the IC50 read?
**A.** Its IC50 is 1390 nM.

**Q.** How did the IC50 turn out when O=C1CCC(N2Cc3cc(CN4C5CC4CN(C(=O)C4=C(c6ccc(F)cc6)CCCC4)C5)ccc3C2=O)C(=O)N1 (stereo not shown) [GT-04169, 3-(5-((3-(4′-fluoro-3,4,5,6-tetrahydro-[1,1′-biphenyl]-2-carbonyl)-3,6-diazabicyclo[3.1.1]heptan-6-yl)methyl)-1-oxoisoindolin-2-yl)piperidine-2,6-dione] was run?
**A.** The IC50 was 850 nM.

**Q.** With CC1(C)CCC(CN2C[C@H]3C[C@@H]2CN3Cc2ccc3c(c2)CN(C2CCC(=O)NC2=O)C3=O)=C(c2ccc(Cl)cc2)C1 (stereo partly drawn) [GT-03887, 3-(5-(((1R,4R)-5-((4′-chloro-5,5-dimethyl-3,4,5,6-tetrahydro-[1,1′-biphenyl]-2-yl)methyl)-2,5-diazabicyclo[2.2.1]heptan-2-yl)methyl)-1-oxoisoindolin-2-yl)piperidine-2,6-dione] as the molecule, how does the IC50 read?
**A.** The IC50 was 190 nM.

**Q.** CC1(C)CCC(CN2CC3CC2CN3C(=O)c2ccc3c(c2)CN(C2CCC(=O)NC2=O)C3=O)=C(c2ccc(Cl)cc2)C1 (stereo not shown) [GT-05541, 3-(5-(5-((4′-chloro-5,5-dimethyl-3,4,5,6-tetrahydro-[1,1′-biphenyl]-2-yl)methyl)-2,5-diazabicyclo[2.2.1]heptane-2-carbonyl)-1-oxoisoindolin-2-yl)piperidine-2,6-dione] was tested. Which IC50 did it give?
**A.** The IC50 was 600 nM.

**Q.** For CC1(C)CCC(CN2CCC3(CC2)CN(Cc2ccc4c(c2)CN(C2CCC(=O)NC2=O)C4=O)C3)=C(c2ccc(F)cc2)C1 (stereo not shown) [GT-05506, 3-(5-((7-((4′-fluoro-5,5-dimethyl-3,4,5,6-tetrahydro-[1,1′-biphenyl]-2-yl)methyl)-2,7-diazaspiro[3.5]nonan-2-yl)methyl)-1-oxoisoindolin-2-yl)piperidine-2,6-dione], which IC50 is on record?
**A.** Its IC50 is 540 nM.

**Q.** For CC1(C)CCC(CN2CC3CCC(C2)N3C(=O)c2ccc3c(c2)CN(C2CCC(=O)NC2=O)C3=O)=C(c2ccc(F)cc2)C1 (stereo not shown) [GT-05451, 3-(5-(3-((4′-fluoro-5,5-dimethyl-3,4,5,6-tetrahydro-[1,1′-biphenyl]-2-yl)methyl)-3,8-diazabicyclo[3.2.1]octane-8-carbonyl)-1-oxoisoindolin-2-yl)piperidine-2,6-dione], which IC50 is on record?
**A.** The IC50 was 1160 nM.

**Q.** How did the IC50 turn out when O=C1CCC(N2Cc3c(C(=O)N4CCN(Cc5ccccc5-c5ccc(Cl)cc5)CC4)cccc3C2=O)C(=O)N1 (stereo not shown) [GT-05486, 3-(4-(4-((4′-chloro-[1,1′-biphenyl]-2-yl)methyl)piperazine-1-carbonyl)-1-oxoisoindolin-2-yl)piperidine-2,6-dione] was run?
**A.** Its IC50 is 1560 nM.

**Q.** Which IC50 does the source give for CC1(C)CCC(C(=O)N2CC3CCC(C2)N3Cc2ccc3c(c2)CN(C2CCC(=O)NC2=O)C3=O)=C(c2ccc(F)cc2)C1 (stereo not shown) [GT-05516, 3-(5-((3-(4′-fluoro-5,5-dimethyl-3,4,5,6-tetrahydro-[1,1′-biphenyl]-2-carbonyl)-3,8-diazabicyclo[3.2.1]octan-8-yl)methyl)-1-oxoisoindolin-2-yl)piperidine-2,6-dione] here?
**A.** Its IC50 is 600 nM.

**Q.** With O=C1CCC(N2Cc3cc(CN4C5CC4CN(C(=O)c4ccccc4-c4ccc(Cl)cc4)C5)cc(F)c3C2=O)C(=O)N1 (stereo not shown) [GT-05668, 3-(5-((3-(4′-chloro-[1,1′-biphenyl]-2-carbonyl)-3,6-diazabicyclo[3.1.1]heptan-6-yl)methyl)-7-fluoro-1-oxoisoindolin-2-yl)piperidine-2,6-dione] as the molecule, how does the IC50 read?
**A.** The IC50 was 650 nM.

**Q.** For CC1(C)CCC(CN2CC3CCC(C2)N3c2ccc3c(c2)CN(C2CCC(=O)NC2=O)C3=O)=C(c2ccc(F)cc2)C1 (stereo not shown) [GT-05498, 3-(5-(3-((4′-fluoro-5,5-dimethyl-3,4,5,6-tetrahydro-[1,1′-biphenyl]-2-yl)methyl)-3,8-diazabicyclo[3.2.1]octan-8-yl)-1-oxoisoindolin-2-yl)piperidine-2,6-dione], which IC50 is on record?
**A.** The IC50 was 1520 nM.

**Q.** Which IC50 does the source give for O=C1CCC(N2Cc3cc(C(O)C4(O)CN(C(=O)c5ccccc5-c5ccc(Cl)cc5)C4)ccc3C2=O)C(=O)N1 (stereo not shown) [GT-05484, 3-(5-((1-(4′-chloro-[1,1′-biphenyl]-2-carbonyl)-3-hydroxyazetidin-3-yl)(hydroxy)methyl)-1-oxoisoindolin-2-yl)piperidine-2,6-dione] here?
**A.** Its IC50 is 360 nM.

**Q.** With CC1(C)CCC(C(=O)N2CC3CCC(C2)N3C(=O)c2ccc3c(c2)CN(C2CCC(=O)NC2=O)C3=O)=C(c2ccc(Cl)cc2)C1 (stereo not shown) [GT-05539, 3-(5-(3-(4′-chloro-5,5-dimethyl-3,4,5,6-tetrahydro-[1,1′-biphenyl]-2-carbonyl)-3,8-diazabicyclo[3.2.1]octane-8-carbonyl)-1-oxoisoindolin-2-yl)piperidine-2,6-dione] as the molecule, how does the IC50 read?
**A.** The IC50 was 1280 nM.

**Q.** For CC1(C)CCC(C(=O)N2CC3CC(C2)N3Cc2ccc3c(c2)CN(C2CCC(=O)NC2=O)C3=O)=C(c2ccc(Cl)cc2)C1 (stereo not shown) [GT-05521, 3-(5-((3-(4′-chloro-5,5-dimethyl-3,4,5,6-tetrahydro-[1,1′-biphenyl]-2-carbonyl)-3,6-diazabicyclo[3.1.1]heptan-6-yl)methyl)-1-oxoisoindolin-2-yl)piperidine-2,6-dione], which IC50 is on record?
**A.** Its IC50 is 620 nM.

**Q.** CC1(C)CCC(CN2CC3CCC2CN3Cc2cccc3c2CN(C2CCC(=O)NC2=O)C3=O)=C(c2ccc(Cl)cc2)C1 (stereo not shown) [GT-05461, 3-(4-((5-((4′-chloro-5,5-dimethyl-3,4,5,6-tetrahydro-[1,1′-biphenyl]-2-yl)methyl)-2,5-diazabicyclo[2.2.2]octan-2-yl)methyl)-1-oxoisoindolin-2-yl)piperidine-2,6-dione] was tested. Which IC50 did it give?
**A.** The IC50 was 1580 nM.

**Q.** With O=C1CCC(N2Cc3cc(C(=O)N4CC5CC(C4)N5Cc4ccccc4-c4ccc(Cl)cc4)ccc3C2=O)C(=O)N1 (stereo not shown) [GT-05705, 3-(5-(6-((4′-chloro-[1,1′-biphenyl]-2-yl)methyl)-3,6-diazabicyclo[3.1.1]heptane-3-carbonyl)-1-oxoisoindolin-2-yl)piperidine-2,6-dione] as the molecule, how does the IC50 read?
**A.** The IC50 was 880 nM.

**Q.** CC1(C)CCC(CN2CC3CCC(C2)N3Cc2ccc3c(c2)C(=O)N(C2CCC(=O)NC2=O)C3)=C(c2ccc(Cl)cc2)C1 (stereo not shown) [GT-05459, 3-(6-((3-((4′-chloro-5,5-dimethyl-3,4,5,6-tetrahydro-[1,1′-biphenyl]-2-yl)methyl)-3,8-diazabicyclo[3.2.1]octan-8-yl)methyl)-1-oxoisoindolin-2-yl)piperidine-2,6-dione] was tested. Which IC50 did it give?
**A.** Its IC50 is 1120 nM.

**Q.** For CC1(C)CCC(C(=O)N2CC(Cc3ccc4c(c3)CN(C3CCC(=O)NC3=O)C4=O)C2)=C(c2ccc(Cl)cc2)C1 (stereo not shown) [GT-05419, 3-(5-((1-(4′-chloro-5,5-dimethyl-3,4,5,6-tetrahydro-[1,1′-biphenyl]-2-carbonyl)azetidin-3-yl)methyl)-1-oxoisoindolin-2-yl)piperidine-2,6-dione], which IC50 is on record?
**A.** The IC50 was 720 nM.

**Q.** For O=C1CCC(N2Cc3cc(C(=O)N4C5CC4CN(Cc4ccccc4-c4ccc(Cl)cc4)C5)ccc3C2=O)C(=O)N1 (stereo not shown) [GT-05643, 3-(5-(3-((4′-chloro-[1,1′-biphenyl]-2-yl)methyl)-3,6-diazabicyclo[3.1.1]heptane-6-carbonyl)-1-oxoisoindolin-2-yl)piperidine-2,6-dione], which IC50 is on record?
**A.** The IC50 was 590 nM.

**Q.** Which IC50 does the source give for O=C1CCC(N2Cc3cc(CN4C5CC4CN(Cc4ccccc4-c4ccc(Cl)cc4)C5)cc(F)c3C2=O)C(=O)N1 (stereo not shown) [GT-05610, 3-(5-((3-((4′-chloro-[1,1′-biphenyl]-2-yl)methyl)-3,6-diazabicyclo[3.1.1]heptan-6-yl)methyl)-7-fluoro-1-oxoisoindolin-2-yl)piperidine-2,6-dione] here?
**A.** Its IC50 is 640 nM.

**Q.** How did the IC50 turn out when CC1(C)CCC(C(=O)N2CCC(Nc3ccc4c(c3)CN(C3CCC(=O)NC3=O)C4=O)CC2)=C(c2ccc(F)cc2)C1 (stereo not shown) [GT-05786, 3-(5-((1-(4′-fluoro-5,5-dimethyl-3,4,5,6-tetrahydro-[1,1′-biphenyl]-2-carbonyl)piperidin-4-yl)amino)-1-oxoisoindolin-2-yl)piperidine-2,6-dione] was run?
**A.** Its IC50 is 1070 nM.

**Q.** With CC1(C)CCC(CN2C[C@H]3C[C@@H]2CN3Cc2ccc3c(c2F)CN(C2CCC(=O)NC2=O)C3=O)=C(c2ccc(Cl)cc2)C1 (stereo partly drawn) [GT-03888, 3-(5-(((1R,4R)-5-((4′-chloro-5,5-dimethyl-3,4,5,6-tetrahydro-[1,1′-biphenyl]-2-yl)methyl)-2,5-diazabicyclo[2.2.1]heptan-2-yl)methyl)-4-fluoro-1-oxoisoindolin-2-yl)piperidine-2,6-dione] as the molecule, how does the IC50 read?
**A.** The IC50 was 240 nM.

**Q.** CC1(C)CC(c2ccc(Cl)cc2)=C(CN2CCN(C(=O)c3ccc4c(c3)CN(C3CCC(=O)NC3=O)C4=O)CC2)CO1 (stereo not shown) [GT-05673, 3-(5-(4-((4-(4-chlorophenyl)-6,6-dimethyl-5,6-dihydro-2H-pyran-3-yl)methyl)piperazine-1-carbonyl)-1-oxoisoindolin-2-yl)piperidine-2,6-dione] was tested. Which IC50 did it give?
**A.** The IC50 was 1140 nM.

**Q.** Which IC50 does the source give for O=C1CCC(N2Cc3c(CN4CCN(C(=O)C5=C(c6ccc(F)cc6)CCCC5)CC4)cccc3C2=O)C(=O)N1 (stereo not shown) [GT-05471, 3-(4-((4-(4′-fluoro-3,4,5,6-tetrahydro-[1,1′-biphenyl]-2-carbonyl)piperazin-1-yl)methyl)-1-oxoisoindolin-2-yl)piperidine-2,6-dione] here?
**A.** Its IC50 is 1080 nM.

**Q.** CC1(C)CCC(C(=O)N2CC3CN(C(=O)c4ccc5c(c4)CN(C4CCC(=O)NC4=O)C5=O)CC3C2)=C(c2ccc(Cl)cc2)C1 (stereo not shown) [GT-05659, 3-(5-(5-(4′-chloro-5,5-dimethyl-3,4,5,6-tetrahydro-[1,1′-biphenyl]-2-carbonyl)octahydropyrrolo[3,4-c]pyrrole-2-carbonyl)-1-oxoisoindolin-2-yl)piperidine-2,6-dione] was tested. Which IC50 did it give?
**A.** The IC50 was 660 nM.
